Measurements: article PMC4060151 (Chemistry & biology, 2014)

Columns and labels:
[1] = tested on: stationary M. tuberculosis mc^26020; assay: Time-dependent killing, stationary cells; type: cell-based; conditions: 10 ×MIC; average of three biological replicates (Fig. 3B)
[2] = tested on: cell wall biosynthesis; conditions: ref Iwatsuki et al., 2006; cited from earlier work
[3] = tested on: ClpC1; conditions: cited from earlier work

CO[C@H]1/C=C/O[C@@]2(C)Oc3c(C)c(O)c4c(O)c(c(/C=N/N5CCN(C)CC5)c(O)c4c3C2=O)NC(=O)/C(C)=C\C=C\[C@H](C)[C@H](O)[C@@H](C)[C@@H](O)[C@@H](C)[C@H](OC(C)=O)[C@@H]1C [rifampicin]
killing of stationary phase cells [1]: characteristic biphasic killing (Fig. 3B) and a significant number of persister cells survive exposure

Lariatin A
mechanism of action [2]: inhibits cell wall biosynthesis

cyclomarin A
binding to ClpC1 [3]: binds to ClpC1 | effect on proteolysis [3]: proposed to cause excessive proteolysis
